Test results as given in patent EP0047620A1, “Aryl diazabicyclyl amides, a process for their preparation and use” (BEECHAM GROUP PLC, priority 1980, dated 1982).

Key:
[1] = system: rat; assay: Increase in intragastric pressure in the rat; type: in vivo; details: conscious restrained rats, subcutaneous administration, increase in intragastric pressure over 40 minute period after dosing
Method: Intragastric pressure changes were recorded from previously starved conscious but retrained rats using a saline filled catheter inserted into the lumen of the stomach via a permanent gastric fistula. The catheter was connected to a physiological pressure transducer and pressure changes recorded on a hot wire pen recorder. In each animal a pre-dose period of 40 minutes was allowed to obtain a measure of spontaneous activity. An index of activity was obtained by measuring the average height of pressure waves during 10 minute periods. Values for 4 such periods were obtained during assessment of spontaneous activity and for the 40 minute period after the subcutaneous administration of the compounds. Students 't' test was applied to the difference in average values obtained for spontaneous and post-compound activity.

[2] = system: mouse; assay: Inhibition of apomorphine induced climbing in the mouse; type: in vivo; details: sc, apomorphine 1 mg/kg s.c., compounds given subcutaneously, climbing scored at 10, 20 and 30 minutes, I + number = inactive at that dose
Method: The test is based on that described by Protais, P., Constantin, J. and Schwartz, J.C.
Apomorphine 1 mg/kg s.c. induces mice to climb the wall of a wire cage (inverted food hopper - 11 x 7.5 x 18 cm high). Mice acclimatised in their home cages in groups of 5 are placed under the hoppers immediately after the injection of apomorphine 1 mg/kg s.c. At 10, 20 and 30 minutes after injection climbing behaviour is scored. The mice are observed for 30 seconds and scored according to the position in which they spend the majority of time, score O - four paws on floor of cage; score 1 - fore paws only on walls; score 2 - all paws on wall of cage. The scores at all 3 times and for each mouse are summed and mice drug treated subcutaneously compared to mice receiving apomorphine only.
Compounds were also tested for their ability to inhibit apomorphine induced climbing in the mouse.

| Compound | minimal effective dose ([1]; Rattus norvegicus, sc, 40 min, read-out: Dose mg/kg Subcutaneously (minimum dose for activity)) [mg/kg] | ED50 [2] [mg/kg] | Dose mg/kg Subcutaneously (minimum dose for activity) [1] [mg/kg] |
| --- | --- | --- | --- |
| COc1cc(N)c(Cl)cc1C(=O)NC1CCN2CCCCN2C1 (racemic) [Example 2, (±) 4-Amino-5-chloro-2-methoxy-N-(3-{1,6-diazabicyclo [4,4,0]decyl}) benzamide] | 1 | 110 |  |
| COc1cc(N)c(Cl)cc1C(=O)NC1CN2CCC(c3ccccc3)CN2C1 (centres unmarked) [Example 8, 4-Amino-5-chloro-2-methoxy-N-(3-{7-phenyl-1,5-diaza-bicyclo[4,3,0]nonyl})benzamide] |  | 4.5 |  |
| (±) 4-Amino-5-chloro-2-methoxy-N-(7 or 8- {2-methyl-1,5-diazabicyclo[4,3,0]nonyl})benzamide [Example 14] |  |  | 0.5 |
| (±) 4-Amino-5-chloro-2-methoxy-N-(7 or 8-{2- methyl-1,5-diazabicyclo[4,3,0]nonyl})benzamide [Example 15] |  |  | 1.0 |
